In PubChem BioAssay (NCI):
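48-hour exposure; five concentrations; linearly interpolated endpoints. GI50: concentration for 50% inhibition of growth. TGI: concentration producing complete growth inhibition.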

Tests used:
Test in all cases: DTP human tumour cell line panel, 48 h
HOP-62 NSCLC = system: HOP-62 NSCLC
K-562 leukemia = system: K-562 leukemia
NCI-H23 lung = system: NCI-H23 lung
SNB-75 CNS = system: SNB-75 CNS
HCT-116 colon = system: HCT-116 colon
OVCAR-3 ovarian = system: OVCAR-3 ovarian
UACC-257 melanoma = system: UACC-257 melanoma
HS 578T breast = system: HS 578T breast
NCI-H522 lung = system: NCI-H522 lung
UO-31 renal = system: UO-31 renal

SMILES | GI50 (HOP-62 NSCLC) [µM] | TGI (HOP-62 NSCLC) [µM] | GI50 (K-562 leukemia) [µM] | TGI (K-562 leukemia) [µM] | GI50 (NCI-H23 lung) [µM] | TGI (NCI-H23 lung) [µM] | GI50 (SNB-75 CNS) [µM] | TGI (SNB-75 CNS) [µM] | GI50 (HCT-116 colon) [µM] | TGI (HCT-116 colon) [µM] | GI50 (OVCAR-3 ovarian) [µM] | TGI (OVCAR-3 ovarian) [µM] | GI50 (UACC-257 melanoma) [µM] | TGI (UACC-257 melanoma) [µM] | GI50 (HS 578T breast) [µM] | TGI (HS 578T breast) [µM] | GI50 (NCI-H522 lung) [µM] | TGI (NCI-H522 lung) [µM] | GI50 (UO-31 renal) [µM] | TGI (UO-31 renal) [µM]
CCCCNC(=O)Oc1ccc2c(=O)c3sc4c(=O)c5ccccc5c(=O)c4c3c(=O)c2c1 | 0.144 | 0.277 | 0.937 | 11.5 | 0.188 | 0.583 | 0.189 | 0.421 | 0.334 | 1.76 | 0.299 | 0.977 | 0.237 | 0.7 | 0.279 | 0.86 | 0.379 | 1.64 | 0.699 | 2.66
COc1c(B(O)O)cccc1-c1nc2c(F)cc3[nH]ncc3c2c2c1CCCC2 | 0.133 | 27.1 | 2.14 | > 100 | 1.72 | 10.8 | 0.0246 | 0.498 | 0.422 | > 53.6 | 2.87 | 19.3 | 3.37 | 24 | 0.0716 | 20.8 | 1.98 | 13.1 | 0.405 | 19.4
CN(C1=NS(=O)(=O)N=C(N(C)c2ccccc2)O1)c1ccccc1 |  | 41.9 |  | 50.4 |  | 28.3 |  | 34.5 |  | 27.6 |  | 51.6 |  | 57.4 |  | 69.9 |  | 46.2 |  | 37.6
O=C1CCC2=C3C4CCCCC4C(=O)C4CCCC(OC2C1)C34 (centres undefined) | 2.72 | 32.8 | 0.493 |  | 0.417 | 2.73 | 5.23 | > 43.8 | 0.316 | > 31.1 | 0.428 | 2.73 | 1.65 | 4.93 | 1.96 | 6.88 | 0.434 | 1.27 | 0.487 | 3.88
NC(=O)c1cc(Cl)ccc1NC(=O)c1ccccc1-c1ccccc1 | 0.902 | > 100 | 0.416 | > 100 | 2.01 | > 100 | 0.273 | 3.2 | 0.43 | 65.1 | 0.328 | 2.59 | 12.8 | 73.2 | 1.07 | > 100 | 0.289 | 0.988 | 1.97 | > 100
CCC(c1ccc(OC)cc1)C(CC)c1ccc(O)c(CN2CCCC2)c1 (centres undefined) | 3.46 | 13.4 | 1.61 | 5.59 | 3.66 | 15.6 | 3.28 | 15.5 | 3.44 | 12.5 | 6.15 | 19.5 | 2.1 | 4.7 | 5.33 | 23.8 | 1.66 | 3.79 | 3.91 | 17
CCn1cc(C(=O)N/N=C/c2cccc(F)c2)c(=O)c2cc(F)c(N3CCNC(C)C3)c(F)c21 (centres undefined) | 1.66 | 3.09 | 1.04 | 2.4 | 1.83 | 3.45 | 1.52 | 2.87 | 1.75 | 3.47 | 1.82 | 3.4 | 1.67 | 3.17 | 4.4 | 25.5 | 1.76 | 3.32 | 1.46 | 2.79
C=C1SC(=Nc2ccccc2Cl)N(C(=O)c2sc3ccccc3c2Cl)C1(C)C | 10.5 | > 51.1 | 4.51 | > 37.4 | 4.41 | > 100 | 6.41 | 97.4 | 8.01 | > 44.5 | 7.55 | > 56.3 | 29.2 | > 100 | 5.66 | 57.8 | 3.03 | 26.8 | 3.64 | > 100
C#Cc1cccc(Nc2ncnc3ccc(-c4cnc(Cl)c(NS(C)(=O)=O)c4)cc23)c1 | 0.292 | 10.7 | 0.682 | > 100 | 0.385 | 8.03 | 0.0101 | 0.125 | 0.4 | 3.15 | 0.197 | 1.29 | 0.307 | 6.57 | 0.0815 | 0.754 | 0.332 | 4.33 | 0.111 | 1.41
N=C1C(c2nc3ccccc3s2)=C(O)CN1c1ccc(Cl)cc1Cl | 13.9 | 38 | 10.7 | 64.5 | 2.59 | 6.6 | 13.1 | > 100 | 4.95 | 25.6 | 18.7 | > 100 | 7 | 45.3 | 25.5 | 75.9 | 11.2 | 35.2 | 1.63 | 3.62
NCC1OC(n2cnc3c(=O)[nH]c(N)nc32)C(O)C1O (centres undefined) |  | > 100 |  | > 100 |  | > 100 |  | > 100 |  | > 100 |  | > 100 |  | > 100 |  | > 100 |  | > 100 |  | > 100
N/C(=N\c1nc2ccccc2s1)NC(=O)Nc1ccccc1Cl | 0.19 | 26.7 | 0.0366 | > 43.5 | 0.305 | 18.2 | 0.0336 | 0.214 | 0.0852 | 3.5 | 0.0857 | 0.594 | 18.6 | > 100 | 0.113 | 10.7 | 0.0439 | 11.9 | 0.197 | 21.2
